25 compounds from PubChem BioAssay (NCI) can be followed below.

“And” between values parts separate entries of the source, which are not always exact repeats. Identical values can stand only once.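 96-well plates; 48 h exposure; 5 concentrations. Endpoints by linear interpolation between flanking doses. Not reached: highest tested concentration assigned. The concentration for 50% growth inhibition is given as GI50. Definition used: TGI = concentration required for complete inhibition of growth.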

One assay has as its system NCI/ADR-RES ovarian. As to the kind of experiment: DTP human tumour cell line panel, 48 h.
For `COc1ccc2c(c1)c1c(n2CCN2CCOCC2)-c2ccccc2CC1`, the TGI is greater than 100 µM.
`O=C1CC(O)c2c1csc2Br` (configuration not stated) yielded a TGI of 49 µM.
As for `CCCCCCCCCC[C@@H](O)[C@H]1CC[C@H]([C@H]2CC[C@H]([C@H](O)CCCCCCCCCC[C@@H]3CC(CC(C)=O)C(=O)O3)O2)O1` (some centres not stated), the GI50 is 377 nM.
`CCOC(=O)c1cc(C2(O)CCN(Cc3ccccc3)C2=O)c(-c2cc(C)no2)[nH]1` (configuration not stated) returned a total growth inhibition concentration (TGI) greater than 100 µM.
On to `Cc1cn(C2C=CC(COP(=O)(OCC3=CC(=O)c4ccccc4C3=O)N(C)CCCCCl)O2)c(=O)[nH]c1=O` (configuration not stated), for which the TGI was found to be 36.2 µM.
In turn, `Clc1nc(Cl)nc(NC23CC4CC(CC(C4)C2)C3)n1` registered a total growth inhibition concentration (TGI) of 44.5 µM.
On to `CCOC(=O)c1cc2c([N+](=O)[O-])c(NC(C)=O)ccc2s1`, for which the TGI is greater than 100 µM.
With `CCOC(=O)c1cc(=C2\CCN(CC(C)CC)C2=S)/c(=C(/O)CC)[nH]1` (configuration not stated), the TGI was determined as 75.3 µM.
The same measure, in the same setting: then `Cc1ccc2c(c1C)CC1(Cc3c(ccc4c3CCC4)C1=O)C2=O` (configuration not stated), with greater than 100 µM; and `OCC1CCCC(n2cnc3c(=S)nc[nH]c32)O1` (configuration not stated), with greater than 100 µM.
On the same count and under the same terms, then `COc1cc2oc(-c3ccc(O)cc3)c(OC3OC(C)C(O)C(O)C3O)c(=O)c2c(O)c1OC` (configuration not stated), with greater than 100 µM; and `CCCCc1c(O)nc(Nc2nc3ccccc3[nH]2)[nH]c1=O`, with greater than 100 µM; and `CC1(C)CC2(C)CC1CC2O` (configuration not stated), with greater than 100 µM.
`Clc1cc(N/N=C(/c2ccccc2)c2ncccn2)ncn1` had a TGI of 50.8 µM.
Compound `Cc1c(S(=O)(=O)c2ccccc2)c(N)n(Cc2ccccc2)c1C` had a concentration for total growth inhibition (TGI) greater than 100 µM.
`CCC(=O)C(c1ccccc1)c1ccccn1` (configuration not stated): the total growth inhibition concentration (TGI) was greater than 100 µM.
`CCCN=C1CC(C)Nc2ccccc2N1` (configuration not stated) came in with a TGI greater than 100 µM.
On the same count and under the same terms, then `Cc1ccc(-c2cc(N)n(-c3nc4c([nH]3)c(=O)n(C)c(=O)n4C)n2)cc1`, with 7.81 µM; and `C=CCN(CC=C)Cn1c(=S)sc2ccccc21`, with greater than 100 µM; and `O=c1[nH]c2nc3ccccc3c(=O)n2/c1=C/c1ccc(O)cc1`, with greater than 100 µM.
Compound `COc1ccc(-c2c(C#N)c(S)n(C3OC(COC(C)=O)C(OC(C)=O)C(OC(C)=O)C3OC(C)=O)c(=O)c2C#N)cc1` (configuration not stated) came in with a TGI greater than 100 µM.
`C[C@]12OC[C@H](c3ccccc3)N1C(=O)C1[C@H]2CC12SCCS2` (some centres not stated) gave a TGI greater than 100 µM.
On the same count and under the same terms, then `Cc1cccc(N2C(=O)C3ON(C(C(N)=O)c4ccccc4)C(c4c5ccccc5c(Cl)c5ccccc45)C3C2=O)c1C` (configuration not stated), with 37.1 µM; and `Cc1ccccc1C1OC1C(=O)c1ccccc1N` (configuration not stated), with greater than 100 µM; and `COc1cc(COC(=O)N[C@H](C(=O)O)C(C)(C)C)c([N+](=O)[O-])cc1OC`, with greater than 100 µM.

In a further assay the test system is IGROV1 ovarian. As to the kind of experiment: DTP human tumour cell line panel, 48 h.
With `COc1ccc2c(c1)c1c(n2CCN2CCOCC2)-c2ccccc2CC1`, the TGI is greater than 100 µM.
For `O=C1CC(O)c2c1csc2Br` (configuration not stated), the TGI was 35.9 µM.
`CCCCCCCCCC[C@@H](O)[C@H]1CC[C@H]([C@H]2CC[C@H]([C@H](O)CCCCCCCCCC[C@@H]3CC(CC(C)=O)C(=O)O3)O2)O1` (some centres not stated) displayed a total growth inhibition concentration (TGI) greater than 50 µM.
On the same count and under the same terms, the figure for `CCOC(=O)c1cc(C2(O)CCN(Cc3ccccc3)C2=O)c(-c2cc(C)no2)[nH]1` (configuration not stated) is greater than 100 µM.
Consider `Cc1cn(C2C=CC(COP(=O)(OCC3=CC(=O)c4ccccc4C3=O)N(C)CCCCCl)O2)c(=O)[nH]c1=O` (configuration not stated), for which the total growth inhibition concentration (TGI) amounted to 22.4 µM.
Take `Clc1nc(Cl)nc(NC23CC4CC(CC(C4)C2)C3)n1`: the concentration for total growth inhibition (TGI) is 28.3 µM.
Still for that read-out and setting: the figure for `CCOC(=O)c1cc2c([N+](=O)[O-])c(NC(C)=O)ccc2s1` is greater than 100 µM; for `CCOC(=O)c1cc(=C2\CCN(CC(C)CC)C2=S)/c(=C(/O)CC)[nH]1` (configuration not stated) it is 37.1 µM; for `Cc1ccc2c(c1C)CC1(Cc3c(ccc4c3CCC4)C1=O)C2=O` (configuration not stated) it is greater than 100 µM.
Compound `OCC1CCCC(n2cnc3c(=S)nc[nH]c32)O1` (configuration not stated) returned a TGI greater than 100 µM.
For the compound `COc1cc2oc(-c3ccc(O)cc3)c(OC3OC(C)C(O)C(O)C3O)c(=O)c2c(O)c1OC` (configuration not stated), the TGI is greater than 100 µM.
In the case of `CCCCc1c(O)nc(Nc2nc3ccccc3[nH]2)[nH]c1=O`, the TGI was greater than 100 µM.
The same measure, in the same setting: then `CC1(C)CC2(C)CC1CC2O` (configuration not stated), with greater than 100 µM; and `Clc1cc(N/N=C(/c2ccccc2)c2ncccn2)ncn1`, with 36.3 µM; and `Cc1c(S(=O)(=O)c2ccccc2)c(N)n(Cc2ccccc2)c1C`, with greater than 100 µM.
`CCC(=O)C(c1ccccc1)c1ccccn1` (configuration not stated) yielded a TGI greater than 100 µM.
Regarding `CCCN=C1CC(C)Nc2ccccc2N1` (configuration not stated), the TGI was greater than 100 µM.
`Cc1ccc(-c2cc(N)n(-c3nc4c([nH]3)c(=O)n(C)c(=O)n4C)n2)cc1`: the TGI was 18.3 µM.
As to `C=CCN(CC=C)Cn1c(=S)sc2ccccc21`, the TGI was greater than 100 µM.
In turn, `O=c1[nH]c2nc3ccccc3c(=O)n2/c1=C/c1ccc(O)cc1` yielded a TGI greater than 100 µM.
`COc1ccc(-c2c(C#N)c(S)n(C3OC(COC(C)=O)C(OC(C)=O)C(OC(C)=O)C3OC(C)=O)c(=O)c2C#N)cc1` (configuration not stated): the GI50 is > 100 µM and 49.7 µM; the TGI was greater than 100 µM.
With `C[C@]12OC[C@H](c3ccccc3)N1C(=O)C1[C@H]2CC12SCCS2` (some centres not stated), the TGI is greater than 100 µM.
`Cc1cccc(N2C(=O)C3ON(C(C(N)=O)c4ccccc4)C(c4c5ccccc5c(Cl)c5ccccc45)C3C2=O)c1C` (configuration not stated) showed a TGI of 32.4 µM.
The same measure, in the same setting: the figure for `COc1cc(COC(=O)N[C@H](C(=O)O)C(C)(C)C)c([N+](=O)[O-])cc1OC` is greater than 100 µM.

The subject of another assay is LOX IMVI melanoma. As to the kind of experiment: DTP human tumour cell line panel, 48 h.
`O=C1CC(O)c2c1csc2Br` (configuration not stated) yielded a TGI of 36.1 µM.
As for `CCCCCCCCCC[C@@H](O)[C@H]1CC[C@H]([C@H]2CC[C@H]([C@H](O)CCCCCCCCCC[C@@H]3CC(CC(C)=O)C(=O)O3)O2)O1` (some centres not stated), the GI50 is 935 nM and the TGI is greater than 50 µM.
`CCOC(=O)c1cc(C2(O)CCN(Cc3ccccc3)C2=O)c(-c2cc(C)no2)[nH]1` (configuration not stated): the TGI was greater than 100 µM.
With `Cc1cn(C2C=CC(COP(=O)(OCC3=CC(=O)c4ccccc4C3=O)N(C)CCCCCl)O2)c(=O)[nH]c1=O` (configuration not stated), the TGI turned out to be 8.66 µM.
Take `Clc1nc(Cl)nc(NC23CC4CC(CC(C4)C2)C3)n1`: the TGI amounted to 26.9 µM.
The compound `CCOC(=O)c1cc2c([N+](=O)[O-])c(NC(C)=O)ccc2s1` displayed a TGI greater than 100 µM.
`CCOC(=O)c1cc(=C2\CCN(CC(C)CC)C2=S)/c(=C(/O)CC)[nH]1` (configuration not stated) returned a TGI of 41.2 µM.
Still for that read-out and setting: the figure for `OCC1CCCC(n2cnc3c(=S)nc[nH]c32)O1` (configuration not stated) is greater than 100 µM; for `COc1cc2oc(-c3ccc(O)cc3)c(OC3OC(C)C(O)C(O)C3O)c(=O)c2c(O)c1OC` (configuration not stated) it is greater than 100 µM; for `CCCCc1c(O)nc(Nc2nc3ccccc3[nH]2)[nH]c1=O` it is greater than 100 µM.
Compound `CC1(C)CC2(C)CC1CC2O` (configuration not stated) came in with a TGI greater than 100 µM.
In turn, `CCC(=O)C(c1ccccc1)c1ccccn1` (configuration not stated) gave a TGI greater than 100 µM.
As to `C=CCN(CC=C)Cn1c(=S)sc2ccccc21`, the TGI stood at 47.1 µM.
Regarding `O=c1[nH]c2nc3ccccc3c(=O)n2/c1=C/c1ccc(O)cc1`, the TGI is greater than 100 µM.
In turn, `COc1ccc(-c2c(C#N)c(S)n(C3OC(COC(C)=O)C(OC(C)=O)C(OC(C)=O)C3OC(C)=O)c(=O)c2C#N)cc1` (configuration not stated) registered a TGI greater than 100 µM.
For the compound `Cc1cccc(N2C(=O)C3ON(C(C(N)=O)c4ccccc4)C(c4c5ccccc5c(Cl)c5ccccc45)C3C2=O)c1C` (configuration not stated), the total growth inhibition concentration (TGI) stood at 16.5 µM.

One may read the TGI as the concentration giving total growth inhibition. A low value points to greater sensitivity of the cells. For orientation: GI50 means the concentration at which growth is held to half of that of the control.
